Laboratory results from paper PMC9374744, “Structural basis for receptor selectivity and inverse agonism in S1P5 receptors” (Nature Communications, 2022).

Target: T1, S1P5 (Homo sapiens, UniProt Q9H228, G231K/G234L/INS226[…]/INS240[…]/P227A/P230V/R224A/R225D/R229Q/R239A/S237M/T232D/T236K/T238R)
T1 construct: The C-terminus was truncated after Val321; hemagglutinin signal peptide (HA; […]) (N); FLAG-tag (N); Ala-Gly-Arg-Ala linker (N); PreScission cleavage site (C); 10× His tag (C, cleaved yes); made in house; host or cells: Sf9 insect cells (baculovirus, Bac-to-Bac)
T1 sequence (Q9H228 other isoform, or with tags, fused parts or gaps with the stated changes): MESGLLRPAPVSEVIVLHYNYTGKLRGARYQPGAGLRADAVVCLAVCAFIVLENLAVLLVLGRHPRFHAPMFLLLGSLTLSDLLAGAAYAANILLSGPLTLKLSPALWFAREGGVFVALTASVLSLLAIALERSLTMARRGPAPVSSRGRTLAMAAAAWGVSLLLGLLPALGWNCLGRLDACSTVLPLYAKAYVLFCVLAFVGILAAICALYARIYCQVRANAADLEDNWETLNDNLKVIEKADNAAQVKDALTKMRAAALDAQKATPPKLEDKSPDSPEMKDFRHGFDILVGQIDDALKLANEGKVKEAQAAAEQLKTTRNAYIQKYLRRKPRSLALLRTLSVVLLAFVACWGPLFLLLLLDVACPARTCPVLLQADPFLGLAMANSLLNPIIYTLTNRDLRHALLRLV
Assay: Microscale fluorescent (CPM) thermal stability assay
Type: binding
Settings: CPM fluorescence thermal shift; purified S1P5 crystallization construct
Experimental: Cells were thawed and lysed by repetitive washes (Dounce homogenization on ice, and centrifugation at 128,600×g for 30 min at 4 °C) in hypotonic buffer (10 mM HEPES pH 7.5, 20 mM KCl, and 10 mM MgCl2) and high osmotic buffer (10 mM HEPES pH 7.5, 20 mM KCl, 10 mM MgCl2, and 1 M NaCl) with an addition of protease inhibitor cocktail [PIC; 500 µM 4-(2-aminoethyl)benzenesulfonyl fluoride hydrochloride (Gold Biotechnology), 1 µM E-64 (Cayman Chemical), 1 µM leupeptin (Cayman Chemical), 150 nM aprotinin (A.G. Scientific)] with the ratio of 50 μl per 100 ml of lysis buffer. […] Stability and stabilizing effect of the ligand were measured by microscale fluorescent thermal stability assay[55] […]
Microscale fluorescent thermal stability assay[55] was conducted using a CPM dye (7-Diethylamino-3-(4-maleimidophenyl)-4-methylcoumarin, Invitrogen) dissolved in DMF at 10 mM. […] 1 µg of the target protein was added to 50 µL of working buffer (25 mM HEPES, 250 mM NaCl, 10%v/v glycerol, 0.05%w/v DDM, 0.01%w/v CHS) with CPM, and the melting curve was recorded on a Rotor-Gene Q real-time PCR cycler (Qiagen) using a temperature ramp from 28 to 98 °С with 2 °С/min rate. The fluorescence signal was measured in the Blue channel (excitation 365 nm, emission 460 nm), and the melting temperature was calculated as the maximum of the fluorescence signal derivative with respect to temperature.

O=C(O)CCCN1CCc2cccc(OCCc3cccc4ccccc34)c2CC1 [ONO-5430608, 4-{6-[2-(1-naphthyl)ethoxy]-1,2,4,5-tetrahydro-3H-3-benzazepin-3-yl} butanoic acid]
increase of the thermal stability of S1P5: 19 °C
